Measured values taken from PubChem BioAssay (NCI).
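Following 48 hours of exposure in 96-well plates, responses at five concentrations were used to interpolate endpoints linearly. GI50: concentration for 50% inhibition of growth. TGI is the concentration that stops growth completely.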

Experiments:
Assay in all cases: growth of human tumour cells (NCI), 48 h
ACHN renal = test system: ACHN renal
BT-549 breast = test system: BT-549 breast
CCRF-CEM leukemia = test system: CCRF-CEM leukemia
HCT-15 colon = test system: HCT-15 colon
MDA-MB-231 breast = test system: MDA-MB-231 breast
NCI-H226 lung = test system: NCI-H226 lung
OVCAR-5 ovarian = test system: OVCAR-5 ovarian
SK-MEL-2 melanoma = test system: SK-MEL-2 melanoma
SN12C renal = test system: SN12C renal
T-47D breast = test system: T-47D breast

Compound | GI50 (ACHN renal) [µM] | TGI (ACHN renal) [µM] | GI50 (BT-549 breast) [µM] | TGI (BT-549 breast) [µM] | GI50 (CCRF-CEM leukemia) [µM] | TGI (CCRF-CEM leukemia) [µM] | GI50 (HCT-15 colon) [µM] | TGI (HCT-15 colon) [µM] | GI50 (MDA-MB-231 breast) [µM] | TGI (MDA-MB-231 breast) [µM] | GI50 (NCI-H226 lung) [µM] | TGI (NCI-H226 lung) [µM] | GI50 (OVCAR-5 ovarian) [µM] | TGI (OVCAR-5 ovarian) [µM] | GI50 (SK-MEL-2 melanoma) [µM] | TGI (SK-MEL-2 melanoma) [µM] | GI50 (SN12C renal) [µM] | TGI (SN12C renal) [µM] | GI50 (T-47D breast) [µM] | TGI (T-47D breast) [µM]
Cc1cc(C)c(CNC(=O)c2cc(Cl)c3c(c2C)O[C@@](C)(C2CCC(N(C)C)CC2)O3)c(=O)[nH]1 (some centres not stated) | > 100 | > 100 | 42 | > 100 | 49.9 | > 100 | > 100 | > 100 | 59.5 | > 100 | 93 | > 100 | > 100 | > 100 | > 100 | > 100 | > 100 | > 100 | > 100 | > 100
COc1ccc2c(c1)c(-c1nc(-c3cn(C)c4ncccc34)cs1)cn2CCCCN1CCCCC1 | 1.65 | 3 | 1.64 | 3.05 | – | – | 1.45 | 2.8 | – | – | 1.52 | 3.11 | 1.65 | 3.08 | – | – | – | – | – | –
N=C(N)c1ccc(-c2ccc(-c3cccs3)s2)cc1F | 1.45 | 2.93 | – | – | 1.58 | 3.46 | 0.629 | 2.09 | 1.16 | 2.93 | 1.74 | 3.86 | 1.02 | 2.36 | 1.94 | 3.65 | 1.63 | 3.69 | 1.49 | 3.48
CCOc1ccc(/C=C/C(=O)c2sc(NNC(C)=O)nc2C)cc1 | – | > 100 | – | – | – | > 100 | – | > 100 | – | – | – | – | – | > 100 | – | > 100 | – | > 100 | – | –
Cc1cc2c(=O)cc(-c3ccncc3)oc2c(C(N)=O)c1C | – | > 100 | – | – | – | > 100 | – | > 100 | – | – | – | > 100 | – | > 100 | – | > 100 | – | > 100 | – | –
C=CN(C(=O)N1CCN(c2cc3c(cc2F)c(=O)c(C(=O)O)cn3C2CC2)CC1)c1nc(-c2ccc(C)cc2)cs1 | 3.38 | > 100 | 0.306 | 2.11 | 0.438 | > 100 | 2.96 | > 100 | 2.99 | > 100 | 2.91 | > 100 | 4.14 | > 100 | – | – | 3.46 | > 100 | – | –
N#Cc1cccc(C2SCc3nc4ccccc4n32)c1 (configuration not stated) | – | > 100 | – | – | – | > 100 | – | – | – | – | – | 96.8 | – | > 100 | – | > 100 | – | > 100 | – | –
CCc1cccc(CC)c1NC1=CC(=O)C(=O)c2ccccc21 | – | 26 | – | – | – | > 100 | – | 57.7 | – | – | – | 88.5 | – | 31 | – | 35.9 | – | 76.5 | – | –
O=c1[nH]c(-c2ccncc2)nc2sc3c(c12)CCCCCC3 | > 100 | > 100 | > 100 | > 100 | > 100 | > 100 | > 100 | > 100 | > 100 | > 100 | > 100 | > 100 | > 100 | > 100 | > 100 | > 100 | > 100 | > 100 | – | –
C#CC[C@]12CC(=O)CC[C@H]1CC1(C2)OCCO1 | – | > 100 | – | – | – | > 100 | – | > 100 | – | – | – | > 100 | – | – | – | > 100 | – | > 100 | – | –
Cc1nc2ccccc2c(=O)n1/N=C(\N=Nc1ccc(Cl)cc1)c1ccc(N(C)C)cc1 | – | > 100 | – | – | – | > 100 | – | > 100 | – | – | – | – | – | – | – | – | – | > 100 | – | –
C/C=C/C(C/C=C(\C)CO[Si](C)(C)C(C)(C)C)O[Si](C)(C)C(C)(C)C (configuration not stated) | – | > 100 | – | – | – | > 100 | – | > 100 | – | > 100 | – | > 100 | – | > 100 | – | > 100 | – | > 100 | – | > 100
CCC[CH2][Sn]1([CH2]CCC)[O]C(=O)c2cccnc2[S]1 | 3.51 | 11.7 | – | – | 0.058 | 1.02 | 2.21 | 4.98 | – | – | 15.3 | 29.1 | – | – | 2.11 | 4.63 | 3.8 | 13.2 | – | –
OC1(c2ccccc2)c2ccccc2N(c2ccccc2)c2ccc(Cl)cc21 (configuration not stated) | 0.367 | 1.37 | 0.367 | 1.29 | 0.382 | 13.7 | 0.424 | 1.86 | 0.231 | 0.626 | – | – | 0.457 | 1.28 | 0.24 | 0.485 | 0.224 | 0.712 | 0.103 | 0.282
O=C(c1ccco1)c1c(C(F)(F)F)n([O-])c2cc(Cl)c(Cl)cc2[n+]1=O | 0.443 | 1.11 | – | – | 0.384 | 9.5 | 0.233 | 0.654 | 0.843 | 1.77 | 1.15 | 3.01 | 0.935 | 1.76 | 3.07 | 8.89 | 0.65 | 1.41 | 7.03 | 15.3
BrC(/C=N/Nc1nnc(-c2ccccc2)c(-c2ccccc2)n1)C(Br)c1ccccc1 (configuration not stated) | – | > 100 | – | – | – | 94.7 | – | > 100 | – | – | – | 70.4 | – | > 100 | – | 73.2 | – | > 100 | – | –
O=C(/C=C/c1c[nH]c2ccccc12)c1ccccc1O | – | 25.2 | – | 28.3 | – | – | – | 21.7 | – | 18.4 | – | 42.8 | – | 28.8 | – | 18.6 | – | 28.8 | – | 7.29
COc1cc(CC2c3cc(OC)c(OC)cc3CCN2C)c(C(=O)O)cc1OC (configuration not stated) | – | > 100 | – | – | – | > 100 | – | – | – | – | – | > 100 | – | > 100 | – | > 100 | – | > 100 | – | –
CC(=O)Nc1ccc(/C=C/C(=O)c2sc(-n3nc(-c4ccccc4)cc3-c3ccccc3)nc2C)cc1 | > 100 | > 100 | – | – | > 100 | > 100 | – | – | – | – | > 100 | > 100 | – | – | > 100 | > 100 | > 100 | > 100 | – | –
